# Measured values from US11802127B2, “3,4-dihydro-2,7-naphthyridine-1,6(2H,7H)-diones as MEK inhibitors” (Pfizer Inc., priority 2021, dated 2023).
# Experiments:
# [1] = test system: ERK1/2(Thr202/Tyr204) phosphorylation (MEK-dependent) in A375 cells; test: Cellular Phospho-p44/42 MAPK (Erk1/2) (Thr202/Tyr204) Assay; type: cell-based; details: Homo sapiens, A-375, 1-hour incubation, pERK1/2 (Thr202/Tyr204) In-Cell Western normalized to GAPDH
# Procedure, shortened: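 A375 cells exposed 1 h to 10-point 1:3 dilutions (top 20–1 μM, 0.5% DMSO), then fixed and stained for pERK1/2 (Thr202/Tyr204) by In-Cell Western. Signal normalized to GAPDH per well; DMSO and 1 μM reference inhibitor define 0 and 100% inhibition.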
# [2] = target: T1, BCRP (hBCRP) (Homo sapiens, UniProt Q9UNQ0); test: Efflux ratio in BCRP transfected MDCKII canine P-gp knockout cells; type: in vitro ADME; details: Papp(B−A)/Papp(A−B), read-out: Efflux ratio MDCKII-hBCRP knock-in,canine pg-P KO
# T1 construct: expressed in transfected cells; host or cells: MDCKII (canine kidney) cells, canine P-gp knockout, transfected with BCRP
# T1 sequence (Q9UNQ0 1-655): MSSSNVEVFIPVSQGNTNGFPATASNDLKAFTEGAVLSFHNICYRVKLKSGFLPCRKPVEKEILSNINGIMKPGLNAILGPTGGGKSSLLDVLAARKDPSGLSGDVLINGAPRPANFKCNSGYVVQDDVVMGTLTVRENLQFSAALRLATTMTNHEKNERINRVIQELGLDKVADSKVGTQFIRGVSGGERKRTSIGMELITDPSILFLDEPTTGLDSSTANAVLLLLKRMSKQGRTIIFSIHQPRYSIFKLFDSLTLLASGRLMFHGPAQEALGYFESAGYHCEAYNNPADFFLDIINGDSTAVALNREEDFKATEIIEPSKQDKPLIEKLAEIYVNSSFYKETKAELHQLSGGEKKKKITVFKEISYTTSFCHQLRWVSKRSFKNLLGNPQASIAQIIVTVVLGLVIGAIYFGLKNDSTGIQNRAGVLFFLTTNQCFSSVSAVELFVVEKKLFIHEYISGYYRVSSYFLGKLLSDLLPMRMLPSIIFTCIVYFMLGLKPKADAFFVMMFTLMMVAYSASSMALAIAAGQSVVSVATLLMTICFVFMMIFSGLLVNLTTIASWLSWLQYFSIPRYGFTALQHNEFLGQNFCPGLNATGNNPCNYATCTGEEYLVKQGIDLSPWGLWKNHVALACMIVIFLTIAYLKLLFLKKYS
# Procedure, shortened: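 Test article at 1 μM final (1% organic) in A→B and B→A directions across MDCKII P-gp knockout monolayers expressing BCRP, 2 h at 37° C., triplicate; lucifer yellow checked monolayer integrity. Concentrations by LC-MS/MS against labetalol internal standard; efflux ratio = Papp(B−A)/Papp(A−B).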
# [3] = MDR1 LLC-PK1 and BCRP MDCKII Permeability Assay: permeability coefficient (Papp); type: in vitro ADME; details: MDCK, test article 1 μM, 37° C.
# Procedure, shortened: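 Bidirectional (A to B, B to A) transport of test article (1 μM, 1% organic) across MDR1-transfected LLC-PK1 or BCRP-transfected MDCKII (canine P-gp knockout) monolayers, 2 h at 37° C., 5% CO2, in triplicate. Lucifer yellow monitored monolayer integrity. Concentrations measured by LC-MS/MS against labetalol internal standard.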
# [4] = target: T2, P-gp (MDR1) (Homo sapiens, UniProt P08183); test: Efflux ratio in MDR1 transfected LLC-PK1 cells; type: in vitro ADME; details: pig, Papp(B−A)/Papp(A−B)
# T2 construct: expressed in transfected cells; host or cells: LLC-PK1 (porcine kidney) cells transfected with MDR1
# Procedure, shortened: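 LLC-PK1 cells transfected with MDR1, test article at 1 μM (1% organic), transport measured A→B and B→A over 2 h at 37° C. Monolayer integrity checked with lucifer yellow, compound quantified by LC-MS/MS. Efflux ratio = Papp(B−A)/Papp(A−B).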
# [5] = Moisture sorption analysis of solid forms; type: physicochemical; details: 25° C.
# Procedure: Water sorption and desorption studies were conducted on automated vapor sorption analyzer (TA instruments Q5000 SA). The microbalance was calibrated using a 100 mg standard weight. The relative humidity sensor was calibrated at 5.0, 11.3, 32.8, 52.8, 75.3, and 84.3% RH (25° C.) using saturated salt solutions. Approximately 10-20 mg of crystalline monohydrate 8-((2-fluoro-4-(methylthio)phenyl)amino)-2-(2-hydroxyethoxy)-7-methyl-3,4-dihydro-2,7-naphthyrdine-1,6(2H,7H)-dione, Form 3 was placed in the quartz sample holder and dried at ≤3% relative humidity (RH) at 25° C. […] A maximum equilibration time of 120 minutes was used for all steps. The weight gain at each of the % RH steps is based on the weight after the initial drying step at 0% RH. The weight change of the sample was not used to assess equilibrium and instead all steps were programed to be 120 minutes. After data collection was complete, data analysis was performed using commercially available TA universal analysis software and Microsoft Excel.
# FIG. 5 depicts the sorption isotherm of crystalline monohydrate 8-((2-fluoro-4-(methylthio)phenyl)amino)-2-(2-hydroxyethoxy)-7-methyl-3,4-dihydro-2,7-naphthyridine-1,6(2H,7H)-dione, Form 3. […] Crystalline anhydrous 8-((2-fluoro-4-(methylthio)phenyl)amino)-2-(2-hydroxyethoxy)-7-methyl-3,4-dihydro-2,7-naphthyridine-1,6(2H,7H)-dione, Form 2 rehydrates to crystalline monohydrate 8-((2-fluoro-4-(methylthio)phenyl)amino)-2-(2-hydroxyethoxy)-7-methyl-3,4-dihydro-2,7-naphthyridine-1,6(2H,7H)-dione, Form 3 at 25% RH at 25° C. as confirmed by PXRD analysis. Based on this analysis, crystalline anhydrous 8-((2-fluoro-4-(methylthio)phenyl)amino)-2-(2-hydroxyethoxy)-7-methyl-3,4-dihydro-2,7-naphthyridine-1,6(2H,7H)-dione, Form 2 is stable below 10% RH at 25° C., and crystalline monohydrate 8-((2-fluoro-4-(methylthio)phenyl)amino)-2-(2-hydroxyethoxy)-7-methyl-3,4-dihydro-2,7-naphthyridine-1,6(2H,7H)-dione, Form 3 is stable above 30% RH at 25° C.
# T2 sequence (P08183 whole entry): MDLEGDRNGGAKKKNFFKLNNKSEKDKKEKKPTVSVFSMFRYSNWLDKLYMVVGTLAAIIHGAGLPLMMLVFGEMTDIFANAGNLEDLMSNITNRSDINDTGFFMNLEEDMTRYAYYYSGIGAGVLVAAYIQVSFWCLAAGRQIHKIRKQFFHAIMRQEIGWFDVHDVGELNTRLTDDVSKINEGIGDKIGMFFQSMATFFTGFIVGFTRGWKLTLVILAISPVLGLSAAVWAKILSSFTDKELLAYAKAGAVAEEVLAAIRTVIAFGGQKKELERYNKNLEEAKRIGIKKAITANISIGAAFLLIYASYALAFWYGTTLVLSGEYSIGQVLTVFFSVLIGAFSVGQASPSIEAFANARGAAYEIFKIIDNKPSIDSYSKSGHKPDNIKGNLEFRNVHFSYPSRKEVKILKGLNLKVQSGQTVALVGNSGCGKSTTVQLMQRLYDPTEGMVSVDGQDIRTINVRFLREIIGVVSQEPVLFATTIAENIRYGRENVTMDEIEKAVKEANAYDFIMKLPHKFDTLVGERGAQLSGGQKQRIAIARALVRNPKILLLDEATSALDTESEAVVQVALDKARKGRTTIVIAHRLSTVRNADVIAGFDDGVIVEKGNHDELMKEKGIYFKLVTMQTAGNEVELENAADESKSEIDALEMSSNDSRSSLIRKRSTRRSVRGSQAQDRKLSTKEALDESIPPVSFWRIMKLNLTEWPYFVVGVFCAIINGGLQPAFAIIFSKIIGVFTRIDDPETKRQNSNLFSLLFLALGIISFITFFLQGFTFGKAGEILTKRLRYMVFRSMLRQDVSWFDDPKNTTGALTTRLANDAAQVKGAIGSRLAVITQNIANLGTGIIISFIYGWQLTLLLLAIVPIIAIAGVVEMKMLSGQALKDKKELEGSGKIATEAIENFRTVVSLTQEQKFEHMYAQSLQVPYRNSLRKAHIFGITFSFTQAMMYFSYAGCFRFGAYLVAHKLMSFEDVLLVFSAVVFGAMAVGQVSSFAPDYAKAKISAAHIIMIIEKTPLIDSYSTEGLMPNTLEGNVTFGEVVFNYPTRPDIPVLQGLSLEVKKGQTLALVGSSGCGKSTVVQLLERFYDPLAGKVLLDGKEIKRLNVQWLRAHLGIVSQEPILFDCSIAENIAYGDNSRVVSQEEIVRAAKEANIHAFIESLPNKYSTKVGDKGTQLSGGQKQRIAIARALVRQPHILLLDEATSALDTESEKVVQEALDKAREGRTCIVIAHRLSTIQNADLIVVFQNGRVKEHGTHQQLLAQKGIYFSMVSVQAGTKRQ
SMILES,"efflux ratio at 2 h, 1 μM [2]","Papp at 2 h, 1 μM [3] [×10⁻⁶ cm/s]","efflux ratio at 2 h, 1 μM [4]",relative humidity at which the solid form is stable [5],relative humidity at which anhydrous Form 2 rehydrates to monohydrate Form 3 ([5]; confirmed by PXRD) [% RH],relative humidity at which monohydrate Form 3 dehydrates to anhydrous Form 2 ([5]; confirmed by PXRD) [% RH],IC50 [1] [nM]
"Cn1c(Nc2ccc(OC(F)F)cc2F)c2c(cc1=O)CCNC2=O [Example 53, 8-((4-(difluoromethoxy)-2-fluorophenyl)amino)-7-methyl-3,4-dihydro-2,7-naphthyridine-1,6(2H,7H)-dione]",1.8,36.9,1.1,,,,30
"CCc1ccc(Nc2c3c(c(C)c(=O)n2C)CCNC3=O)c(F)c1 [Example 56, 8-((4-ethyl-2-fluorophenyl)amino)-5,7-dimethyl-3,4-dihydro-2,7-naphthyridine-1,6(2H,7H)-dione]",1.1,32.1,0.8,,,,56
"CSc1ccc(Nc2c3c(cc(=O)n2C)CCN(OCCO)C3=O)c(F)c1 [Form 2, 8-((2-fluoro-4-(methylthio)phenyl)amino)-2-(2-hydroxyethoxy)-7-methyl-3,4-dihydro-2,7-naphthyridine-1,6(2H,7H)-dione]",,,,below 10 % RH,25,,

# Continued, in another order:
"efflux ratio at 2 h, 1 μM [2]","Papp at 2 h, 1 μM [3] [×10⁻⁶ cm/s]","efflux ratio at 2 h, 1 μM [4]",relative humidity at which the solid form is stable [5],relative humidity at which anhydrous Form 2 rehydrates to monohydrate Form 3 ([5]; confirmed by PXRD) [% RH],relative humidity at which monohydrate Form 3 dehydrates to anhydrous Form 2 ([5]; confirmed by PXRD) [% RH],SMILES,IC50 [1] [nM]
1.4,37.4,1.4,,,,"CSc1ccc(Nc2c3c(c(C)c(=O)n2C)CCNC3=O)c(F)c1 [Example 55, 8-((2-fluoro-4-(methylthio)phenyl)amino)-5,7-dimethyl-3,4-dihydro-2,7-naphthyrdine-1,6(2H,7H)-dione]",28
1.2,31.8,0.9,,,,"Cc1c2c(c(Nc3ccc(C4CC4)cc3F)n(C)c1=O)C(=O)NCC2 [Example 57, 8-((4-cyclopropyl-2-fluorophenyl)amino)-5,7-dimethyl-3,4-dihydro-2,7-naphthyridine-1,6(2H,7H)-dione]",94
,,,above 30 % RH,,15,"CSc1ccc(Nc2c3c(cc(=O)n2C)CCN(OCCO)C3=O)c(F)c1 [Form 3, 8-((2-fluoro-4-(methylthio)phenyl)amino)-2-(2-hydroxyethoxy)-7-methyl-3,4-dihydro-2,7-naphthyridine-1,6(2H,7H)-dione]",
